# Assay results published in ChEMBL document CHEMBL3885881, “DrugMatrix”.
# Species: Rattus norvegicus
# Test: DrugMatrix - Regimen: Daily Repeat
# Type: toxicity, organism-based, Sprague-Dawley
# Parameters: regimen Daily Repeat, gender Male, age 6-8 weeks
# Conditions: in vivo, po, 100 mg/kg, route oral GAVAGE, dose level Low, vehicle .5 % CMC; for ABSOLUTE BASOPHIL / ABSOLUTE EOSINOPHIL / ABSOLUTE LYMPHOCYTE / ABSOLUTE MONOCYTE / ABSOLUTE SEGMENTED NEUTROPHIL / BASOPHIL / EOSINOPHIL / ERYTHROCYTE COUNT / HEMATOCRIT / HEMOGLOBIN / LEUKOCYTE COUNT / LYMPHOCYTE / MEAN CORPUSCULAR HEMOGLOBIN / MEAN CORPUSCULAR HEMOGLOBIN CONCENTRATION / MEAN CORPUSCULAR VOLUME / MONOCYTE / NEUTROPHIL / NUCLEATED RED BLOOD CELLS / PLATELET COUNT: tissue Blood; for ALANINE AMINOTRANSFERASE / ALBUMIN / ALKALINE PHOSPHATASE / ASPARTATE AMINOTRANSFERASE / BLOOD UREA NITROGEN / CARBON DIOXIDE / CHLORIDE / CHOLESTEROL / CREATINE PHOSPHOKINASE / CREATININE / GLUCOSE / LACTATE DEHYDROGENASE / LIPASE / PHOSPHORUS / POTASSIUM / SODIUM / TOTAL BILIRUBIN / TOTAL PROTEIN / URIC ACID: tissue Plasma
smiles,measurement,setting,value
CC=Cc1ccc(O)c(OC)c1 [ISOEUGENOL],ABSOLUTE BASOPHIL,"72 h, time 3 day",0 CELLS/uL
same,ABSOLUTE EOSINOPHIL,"72 h, time 3 day",0 CELLS/uL
same,ABSOLUTE LYMPHOCYTE,"72 h, time 3 day",15444.33 CELLS/uL
same,ABSOLUTE MONOCYTE,"72 h, time 3 day",342 CELLS/uL
same,ABSOLUTE SEGMENTED NEUTROPHIL,"72 h, time 3 day",1847 CELLS/uL
same,BASOPHIL,"72 h, time 3 day",0%
same,EOSINOPHIL,"72 h, time 3 day",0%
same,ERYTHROCYTE COUNT,"72 h, time 3 day",5.62 x10E6/uL
same,HEMATOCRIT,"72 h, time 3 day",36.7%
same,HEMOGLOBIN,"72 h, time 3 day",13.83 G/DL
same,LEUKOCYTE COUNT,"72 h, time 3 day",17.63 x10E3/uL
same,LYMPHOCYTE,"72 h, time 3 day",87.33%
same,MEAN CORPUSCULAR HEMOGLOBIN,"72 h, time 3 day",24.63 pg
same,MEAN CORPUSCULAR HEMOGLOBIN CONCENTRATION,"72 h, time 3 day",37.77 G/DL
same,MEAN CORPUSCULAR VOLUME,"72 h, time 3 day",65.23 fL
same,MONOCYTE,"72 h, time 3 day",2%
same,NEUTROPHIL,"72 h, time 3 day",10.67%
same,NUCLEATED RED BLOOD CELLS,"72 h, time 3 day",0 /100WBC
same,PLATELET COUNT,"72 h, time 3 day",1262 x10E3/uL
same,ALANINE AMINOTRANSFERASE,"72 h, time 3 day",53.33 u/L
same,ALBUMIN,"72 h, time 3 day",4.73 G/DL
same,ALKALINE PHOSPHATASE,"72 h, time 3 day",338.67 u/L
same,ASPARTATE AMINOTRANSFERASE,"72 h, time 3 day",88.33 u/L
same,BLOOD UREA NITROGEN,"72 h, time 3 day",17.67 mg/dL
same,CARBON DIOXIDE,"72 h, time 3 day",23.67 mmol/L
same,CHLORIDE,"72 h, time 3 day",102 MEQ/L
same,CHOLESTEROL,"72 h, time 3 day",66.67 mg/dL
same,CREATINE PHOSPHOKINASE,"72 h, time 3 day",312.33 u/L
same,CREATININE,"72 h, time 3 day",0.17 mg/dL
same,GLUCOSE,"72 h, time 3 day",143 mg/dL
same,LACTATE DEHYDROGENASE,"72 h, time 3 day",280.33 u/L
same,LIPASE,"72 h, time 3 day",9.33 u/L
same,PHOSPHORUS,"72 h, time 3 day",11.33 mg/dL
same,POTASSIUM,"72 h, time 3 day",6.23 MEQ/L
same,SODIUM,"72 h, time 3 day",144.93 MEQ/L
same,TOTAL BILIRUBIN,"72 h, time 3 day",0.23 mg/dL
same,TOTAL PROTEIN,"72 h, time 3 day",5.83 G/DL
same,URIC ACID,"72 h, time 3 day",1.8 mg/dL
same,ABSOLUTE BASOPHIL,"120 h, time 5 day",0 CELLS/uL
same,ABSOLUTE EOSINOPHIL,"120 h, time 5 day",450 CELLS/uL
same,ABSOLUTE LYMPHOCYTE,"120 h, time 5 day",12545.67 CELLS/uL
same,ABSOLUTE MONOCYTE,"120 h, time 5 day",392.67 CELLS/uL
same,ABSOLUTE SEGMENTED NEUTROPHIL,"120 h, time 5 day",1645 CELLS/uL
same,BASOPHIL,"120 h, time 5 day",0%
same,EOSINOPHIL,"120 h, time 5 day",3%
same,ERYTHROCYTE COUNT,"120 h, time 5 day",5.9 x10E6/uL
same,HEMATOCRIT,"120 h, time 5 day",36%
same,HEMOGLOBIN,"120 h, time 5 day",13.27 G/DL
same,LEUKOCYTE COUNT,"120 h, time 5 day",15.03 x10E3/uL
same,LYMPHOCYTE,"120 h, time 5 day",83.33%
same,MEAN CORPUSCULAR HEMOGLOBIN,"120 h, time 5 day",22.57 pg
same,MEAN CORPUSCULAR HEMOGLOBIN CONCENTRATION,"120 h, time 5 day",36.83 G/DL
same,MEAN CORPUSCULAR VOLUME,"120 h, time 5 day",61.17 fL
same,MONOCYTE,"120 h, time 5 day",2.67%
same,NEUTROPHIL,"120 h, time 5 day",11%
same,NUCLEATED RED BLOOD CELLS,"120 h, time 5 day",0 /100WBC
same,PLATELET COUNT,"120 h, time 5 day",1402 x10E3/uL
same,ALANINE AMINOTRANSFERASE,"120 h, time 5 day",47.67 u/L
same,ALBUMIN,"120 h, time 5 day",4.37 G/DL
same,ALKALINE PHOSPHATASE,"120 h, time 5 day",345.67 u/L
same,ASPARTATE AMINOTRANSFERASE,"120 h, time 5 day",83.33 u/L
same,BLOOD UREA NITROGEN,"120 h, time 5 day",18 mg/dL
same,CARBON DIOXIDE,"120 h, time 5 day",23.67 mmol/L
same,CHLORIDE,"120 h, time 5 day",109.67 MEQ/L
same,CHOLESTEROL,"120 h, time 5 day",58 mg/dL
same,CREATINE PHOSPHOKINASE,"120 h, time 5 day",251.33 u/L
same,CREATININE,"120 h, time 5 day",0.21 mg/dL
same,GLUCOSE,"120 h, time 5 day",141 mg/dL
same,LACTATE DEHYDROGENASE,"120 h, time 5 day",180.67 u/L
same,LIPASE,"120 h, time 5 day",9 u/L
same,PHOSPHORUS,"120 h, time 5 day",11.17 mg/dL
same,POTASSIUM,"120 h, time 5 day",6.1 MEQ/L
same,SODIUM,"120 h, time 5 day",146.53 MEQ/L
same,TOTAL BILIRUBIN,"120 h, time 5 day",0.2 mg/dL
same,TOTAL PROTEIN,"120 h, time 5 day",6.13 G/DL
same,URIC ACID,"120 h, time 5 day",1.57 mg/dL
